Where a SMILES comes first, the peptide text is derived from it. Bridges are numbered along the chain shown (N, C = ends). Roman numbers before positions name the chains, in order. [ ]: non-standard residue; d: D form. βAla = NCCC(=O)O
Columns and labels:
[1] = system: LPS from K. pneumoniae ATCC15380; TNF-α secretion by Raw 264.7 macrophages; assay: Inhibition of LPS-induced TNF-α secretion by Raw 264.7 macrophages, LPS from K. pneumoniae; type: cell-based
Method: FIG. 3. Inhibition of TNF-α release by neutralization of LPS. A, Raw 264.7 cells were incubated with LPS from P. aeruginosa 20 ng/ml and M33. Triangles indicate incubation with LPS and different concentrations of M33. Squares indicate incubation with M33 only. B, Raw 264.7 cells were incubated with LPS from K. pneumoniae 5 ng/ml and M33. Triangles indicate incubation of macrophages with LPS and different concentrations of M33. Squares indicate incubation of macrophages with M33 only. SD derived by means of three different experiments. 100% indicates the maximum amount of TNF-α produced by macrophages when incubated with LPS without M33. The other percentages indicate the amount of TNF-α produced by macrophages when incubated with LPS and M33, with respect to 100%. Basal levels of TNF-α were negligible. MIC of M33 is indicated by the arrow.
Then it was examined for inhibiting LPS-induced TNF-α, secretion by Raw 264.7 macrophages.

[2] = system: P. aeruginosa ATCC 27853; assay: In vivo antibacterial activity, mice infected ip with lethal amount of P. aeruginosa ATCC 27853; design: species or system Balb-c mice; details: for Animals protected from death: P. aeruginosa ATCC 27853 1×10^7 CFU ip
Method: FIG. 4. In vivo antibacterial activity of tetra-branched M33 peptide. A, Balb-c mice (20 g) were intra-peritoneally injected with a lethal amount of E. coli TG1 cells (1.5×10^9 CFU). Continuous line (Ctr) indicates mice only injected ip with bacteria and no M33. Broken line indicates mice injected ip with bacteria and a single injection of M33 peptide 10 mg/Kg 30 minutes later. B, Balb-c mice (20 g) were intra-peritoneally injected with a lethal amount of P. aeruginosa cells (ATCC 27853 1×10^7 CFU). Continuous line (Ctr) indicates mice which only received bacteria; other groups received bacteria and a single dose of M33 30 minutes later (see figure for doses of M33). C, Balb-c mice (20 g) were intra-peritoneally injected with a lethal amount of P. aeruginosa cells (multi drug resistant VR 147 clinical isolate, 1.5×10^7 CFU). Continuous line (Ctr) indicates mice which only received bacteria; broken line indicates mice which received bacteria and a single dose of M33 25 mg/Kg. D, Balb-c mice (20 g) were intra-peritoneally injected with a lethal amount of P. aeruginosa cells (ATCC 27853 1×10^7 CFU). Continuous line (Ctr) indicates mice which only received bacteria; long broken line, mice receiving bacteria and two injections of M33 (5 mg/Kg×2), 30 minutes and 12 hours after bacteria; short broken line, mice receiving bacteria and three injections of M33 (5 mg/Kg×3), 30 minutes, 12 and 24 hours after bacteria. P<0.05.
Tetra-branched M33 peptide was analysed for its antibacterial activity in mice infected with lethal amounts of bacteria. Two different bacterial species were used, Escherichia coli and Pseudomonas aeruginosa. […] Balb-c mice were infected with the LD100 of bacteria and treated 30 minutes later with the peptide by ip administration.

[3] = type: in vivo; details: animals treated ip with 100 mg/Kg (not shown)

## CC[C@H](C)[C@H](NC(=O)[C@H](CCCCN)NC(=O)[C@@H](N)CCCCN)C(=O)N[C@@H](CCCNC(=N)N)C(=O)N[C@H](C(=O)N[C@@H](CCCNC(=N)N)C(=O)N[C@@H](CC(C)C)C(=O)N[C@@H](CO)C(=O)N[C@@H](C)C(=O)NCCCC[C@H](NC(=O)[C@H](C)NC(=O)[C@H](CO)NC(=O)[C@H](CC(C)C)NC(=O)[C@H](CCCNC(=N)N)NC(=O)[C@@H](NC(=O)[C@H](CCCNC(=N)N)NC(=O)[C@@H](NC(=O)[C@H](CCCCN)NC(=O)[C@@H](N)CCCCN)[C@@H](C)CC)C(C)C)C(=O)NCCCC[C@H](NC(=O)[C@H](CCCCNC(=O)[C@H](C)NC(=O)[C@H](CO)NC(=O)[C@H](CC(C)C)NC(=O)[C@H](CCCNC(=N)N)NC(=O)[C@@H](NC(=O)[C@H](CCCNC(=N)N)NC(=O)[C@@H](NC(=O)[C@H](CCCCN)NC(=O)[C@@H](N)CCCCN)[C@@H](C)CC)C(C)C)NC(=O)[C@H](C)NC(=O)[C@H](CO)NC(=O)[C@H](CC(C)C)NC(=O)[C@H](CCCNC(=N)N)NC(=O)[C@@H](NC(=O)[C@H](CCCNC(=N)N)NC(=O)[C@@H](NC(=O)[C@H](CCCCN)NC(=O)[C@@H](N)CCCCN)[C@@H](C)CC)C(C)C)C(=O)NCCC(=O)O)C(C)C [M33, KKIRVRLSA] (I: H-KKIRVRLSAKK[βAla]-OH / II: H-KKIRVRLSAK / III: H-KKIRVRLSA / IV: H-KKIRVRLSA; amide I:10-IV:C, I:11-II:C, II:10-III:C; N-terminus assumed)
[1]; Raw 264.7 macrophages, LPS from K. pneumoniae ATCC15380, 5 ng/ml, read-out: EC50, block of TNF-α secretion
  EC50: 0.26 µM
[1]; at a concentration corresponding to MIC (1.5-3 μM), LPS from K. pneumoniae
  Decrease of TNF-α production: more than 80%
[2]; single dose 6.5 mg/Kg ip 30 minutes later
  Animals protected from death: did not protect them from death
[2]; single dose 12.5 mg/Kg ip 30 minutes later
  Animals protected from death: 25%
[2]; single dose 25 mg/Kg ip 30 minutes later
  Animals protected from death: 75%
[2]; P. aeruginosa ATCC 27853, three doses of 5 mg/Kg (30 min, 12 h and 24 h after infection)
  Survival beyond seven days after infection: 100%
[2]; P. aeruginosa ATCC 27853, two doses of 5 mg/Kg (30 min and 12 h after infection)
  Survival after multiple doses: death was delayed
[3]
  Apparent toxicity signs: did not produce apparent toxicity signs

From patent US8440794B2, “Peptide sequences, their branched form and use thereof for antimicrobial applications” (Universita' Degli Studi di Siena, priority 2008, dated 2013)
